Values quoted from earlier work, collected in US10881700B1, “Compositions including extracts of gray mangrove leaves and methods of treatment using such compositions in treatment of viral infections” (KING ABDULLAH UNIVERSITY OF SCIENCE AND TECHNOLOGY, priority 2016, dated 2021).

Tests used:
HIV-1 integrase = HIV-1 integrase (Human immunodeficiency virus type 1 group M subtype B, UniProt P04585); conditions: reference [24]
HIV-1 reactivation = conditions: reference [26]

| SMILES | activity against HIV-1 integrase (HIV-1 integrase) | blocking HIV-1 reactivation in cases of virus latency (HIV-1 reactivation) |
| --- | --- | --- |
| COC(=O)C=Cc1ccccc1 [Methyl cinnamate] | not demonstrated activity |  |
| COc1ccccc1O [gluaiacol, 2-Methoxy phenol] |  | efficient in blocking HIV-1 reactivation |
